Data from patent US4943570A, “Benzimidazolesulfonamides and imidazopyridinesulfonamides, and their application as drugs” (Laboratorios Del Dr. Esteve, S.A., priority 1986, dated 1990).

Tested on: gastric acid secretion
Assay: Inhibition of gastric acid secretion in Shay rats (Shay's method, pylorus ligation)
Type: in vivo, Male Wistar rats
Conditions: Rattus norvegicus, administered intraduodenally; for ED50: 2 h; for inhibition in vivo at 40 mg/kg: intraduodenal, 2 h after pylorus ligation, read-out: Percentage inhibition of gastric acid secretion
From the text: Shay's method [H. Shay; S. A. Komarov; S. S. Fels; D. Merange: M. Grvenstein; H. Siplet: Gastroenterology, 5, 43 (1945)--F. E. Visscber; P. H. Seay: A. P. Taxelaar; W. Veldkamp; M. J. Vander Brook: J. Pharmac. Exp. Ther., 110, 188 (1954)--"Animal Experiments in Pharmacological Analysis", F. R. Domer: C. C. Thomas, published by Springfield, Ill., U.S.A., 1970, p. 140].
Male Wistar rats weighing 200 to 250 grams are used in this test; they are fasted from the day preceding the day of the test, with free access to water. Groups containing a minimum of 4 animals each are used.
The rats are anesthetized with ethyl ether, a laparotomy is performed on them and their pylorus is ligated; the abdominal incision is then sewn up. The administration of the products, with the vehicle for the control group, is effected intraduodenally (i.d.) before the abdominal incision is sewn up. The dose administered in the first test is 40 mg/kg and the 50% effective dose (ED50), administered intraduodenally, is also determined in a second test. The vehicle used is gum arabic at a concentration of 5% w/v in double-distilled water.
Two hours after ligation of the pylorus, the rats are sacrificed by prolonged anesthesia with ethyl ether and the volume of gastric juice is measured; the total acidity is determined by means of a pH meter equipped with an automatic burette. For each product and each dose tested, the percentage inhibition of gastric acid secretion is determined relative to the control group.

Compound | ED50 [mg/kg] | inhibition in vivo at 40 mg/kg [%]
CCNS(=O)(=O)c1nc2cc(C(=O)c3ccccc3)ccc2[nH]1 [Example 1, 5-benzoyl-N-ethyl-1H-benzimidazole-2-sulfonamide] | 22.4 | 78.7
O=S(=O)(Nc1ccccn1)c1nc2ccccc2[nH]1 [Example 5, N-(2-Pyridyl)-1H-benzimidazole-2-sulfonamide] | 10.8 | 96.4
COc1ccc(CCNS(=O)(=O)c2nc3ccccc3[nH]2)cc1OC [Example 11, N-[2-(3,4-Dimethoxyphenylethyl)]-1H-benzimidazole-2-sulfonamide] | 42 | 48.8
CCCCNS(=O)(=O)c1nc2ccccc2[nH]1 [Example 14, N-Butyl-1H-benzimidazole-2-sulfonamide] | 30.6 | 61.4
CCNS(=O)(=O)c1nc2cc(C(F)(F)F)ccc2[nH]1 [Example 26, N-Ethyl-5-trifluoromethyl-1H-benzimidazole-2-sulfonamide] | 38.5 | 53
O=S(=O)(c1nc2ccccc2[nH]1)N1CCCCC1CO (centres unmarked) [Example 28, 2-(Sulfonyl-2-hydroxymethyl-1-piperidinyl)-1H-benzimidazole] | 38.5 | 51.4
COc1ccc(CNS(=O)(=O)c2nc3ccccc3[nH]2)cc1 [Example 29, N-(4-Methoxybenzyl)-1H-benzimidazole-2-sulfonamide] | 37.9 | 54.2
O=[N+]([O-])c1ccc2[nH]c(S(=O)(=O)NCCN3CCOCC3)nc2c1 [Example 36, N-[2-(4-Morpholinoethyl)]-5-nitro-1H-benzimidazole-2-sulfonamide] | 65.6 | 40
CCNS(=O)(=O)c1nc2ccccc2n1CC [Example 62, 1,N-diethyl-1H-benzimidazole-2-sulfonamide] | 31 | 52.4
CCN(CC)S(=O)(=O)c1nc2ccccc2n1CC [Example 63, 1,N,N-Triethyl-1H-benzimidazole-2-sulfonamide] | 49.2 | 52
CCN(CC)CCCC(C)NS(=O)(=O)c1nc2cc(Cl)ccc2n1CC (centres unmarked) [Example 68, 5-Chloro-N-(4-diethylamino-1-methylbutyl)-1-ethyl-1H-benzimidazole-2-sulfonamide] | 39.7 | 53.8
CCN(CC)CCCC(C)NS(=O)(=O)c1nc2ccc(Cl)cc2n1CC (centres unmarked) [Example 69, 6-Chloro-N-(4-diethylamino-1-methylbutyl)-1-ethyl-1H-benzimidazole-2-sulfonamide] | 39.2 | 54.3
CCN(CC)CCCC(C)N(CC)S(=O)(=O)c1nc2cc(Cl)ccc2n1CC (centres unmarked) [Example 73, 5-Chloro-1,N-diethyl-N-(4-diethylamino-1-methylbutyl)-1H-benzimidazole-2-sulfonamide] | 18.5 | 77.5
CCN(CC)CCCC(C)N(CC)S(=O)(=O)c1nc2ccc(Cl)cc2n1CC (centres unmarked) [Example 74, 6-Chloro-1,N-diethyl-N-(4-diethylamino-1-methylbutyl)-1H-benzimidazole-2-sulfonamide] | 17.9 | 76.4
CCN1CCCn2c(nc3ccccc32)S1(=O)=O [Example 90, 3,4,5-Trihydro-2H-2-ethyl-[1,2,6]-thiadiazepino[6,7-a]-benzimidazole 1,1-dioxide] | 64 | 51.4
CCCCN1CCn2c(nc3ccccc32)S1(=O)=O [Example 100, 2H-2-Butyl-3,4-Dihydro-[1,2,5]-thiadiazino[5,6-a]-benzimidazole 1,1-dioxide] | 37.6 | 51.8
CCN(CC)CCCC(C)N1CCn2c(nc3cc(Cl)ccc32)S1(=O)=O (centres unmarked) [Example 102, 8-Chloro-3,4-dihydro-2H-2-(4-diethylamino-1-methylbutyl)-[1,2,5]-thiadiazino[5,6-a]benzimidazole 1,1-dioxide] | 14.1 | 71.4
CCN(CC)CCCC(C)N1CCn2c(nc3ccc(Cl)cc32)S1(=O)=O (centres unmarked) [Example 103, 7-chloro-3,4-dihydro-2H-2-(4-diethylamino-1-methylbutyl)-[1,2,5]-thiadiazino[5,6-a]benzimidazole 1,1-dioxide] | 15 | 72.3
CCN1CCn2c(nc3cc(C(=O)c4ccccc4)ccc32)S1(=O)=O [Example 115, 8-Benzoyl-3,4-dihydro-2H-2-ethyl-[1,2,5]-thiadiazino-[5,6-a]benzimidazole 1,1-dioxide] | 38.9 | 51.1
CCN1CCn2c(nc3ccc(C(=O)c4ccccc4)cc32)S1(=O)=O [Example 116, 7-Benzoyl-3,4-dihydro-2H-2-ethyl-[1,2,5]-thiadiazino-[5,6-a]benzimidazole 1,1-dioxide] | 39.4 | 50.3
O=[N+]([O-])c1ccc2c(c1)nc1n2CCN(CCCN2CCOCC2)S1(=O)=O [Example 141, 3,4-Dihydro-2H-2-[3-(4-morpholinopropyl)]-8-nitro-[1,2,5]-thiadiazino[5,6-a]benzimidazole 1,1-dioxide] | 16.3 | 80.9
CCN(CC)CCCC(C)N1CCn2c(nc3cc([N+](=O)[O-])ccc32)S1(=O)=O (centres unmarked) [Example 143, 2H-2-(4-Diethylamino-1-methylbutyl)-3,4-dihydro-8-nitro-[1,2,5]-thiadiazino[5,6-a]benzimidazole 1,1-dioxide] | 20.5 | 99.3
O=[N+]([O-])c1ccc2c(c1)nc1n2CCNS1(=O)=O [Example 145, 3,4-Dihydro-2H-8-nitro-[1,2,5]-thiadiazino[5,6-a]-benzimidazole 1,1-dioxide] | 19.8 | 68.7
O=[N+]([O-])c1ccc2nc3n(c2c1)CCNS3(=O)=O [Example 146, 3,4-Dihydro-2H-7-nitro-[1,2,5]-thiadiazino[5,6-a]-benzimidazole 1,1-dioxide] | 20.3 | 67.5
O=[N+]([O-])c1ccc2c(c1)nc1n2CCN(C23CC4CC(CC(C4)C2)C3)S1(=O)=O [Example 147, 2H-2-(1-Adamantyl)-3,4-dihydro-8-nitro-[1,2,5]-thiadiazino[5,6-a]benzimidazole 1,1-dioxide] | 44 | 46.5
O=[N+]([O-])c1ccc2nc3n(c2c1)CCN(C12CC4CC(CC(C4)C1)C2)S3(=O)=O [Example 148, 2H-2-(1-Adamantyl)-3,4-dihydro-7-nitro-[1,2,5]-thiadiazino[5,6-a]benzimidazole 1,1-dioxide] | 46 | 45.3
CCN1CCn2c(nc3ccc(N)cc32)S1(=O)=O [Example 149, 7-amino-3,4-dihydro-2H-2-ethyl-[1,2,5]-thiadiazino[5,6-a]benzimidazole 1,1 dioxide] | 32.6 | 64
CCN1CCn2c(nc3ccc(NC(C)=O)cc32)S1(=O)=O [Example 150, 7-acetylamino-3,4-dihydro-2H-2-ethyl-[1,2,5]-thiadiazino[5,6-a]benzimidazole 1,1-dioxide] | 41.6 | 53.4
